Test [1] addresses T1, Acyl-CoA: Cholesterol Acyltransferase (ACAT) (Rattus norvegicus, UniProt Q7TQM4).
T1 construct: centrifuged at 105,000×g for 1 hour to pellet the microsomes; from tissue; host or cells: liver microsomes of fasted male Sprague Dawley rats
T1 sequence (Q7TQM4 1-524): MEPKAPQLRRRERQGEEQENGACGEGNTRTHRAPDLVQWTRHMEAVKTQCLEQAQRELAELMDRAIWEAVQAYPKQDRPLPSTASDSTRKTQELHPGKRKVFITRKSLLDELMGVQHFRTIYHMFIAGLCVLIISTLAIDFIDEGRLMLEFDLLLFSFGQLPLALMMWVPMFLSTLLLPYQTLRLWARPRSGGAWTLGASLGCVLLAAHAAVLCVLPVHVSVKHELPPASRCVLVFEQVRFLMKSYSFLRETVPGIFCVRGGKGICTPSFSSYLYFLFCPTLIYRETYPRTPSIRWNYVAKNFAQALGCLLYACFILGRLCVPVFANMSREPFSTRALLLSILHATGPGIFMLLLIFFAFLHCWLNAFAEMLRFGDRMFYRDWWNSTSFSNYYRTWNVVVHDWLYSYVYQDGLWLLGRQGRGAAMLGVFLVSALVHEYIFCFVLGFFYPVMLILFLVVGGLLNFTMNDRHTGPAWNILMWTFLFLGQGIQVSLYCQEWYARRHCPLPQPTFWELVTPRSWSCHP
The experiment in a line: Inhibition of Acyl-CoA:Cholesterol Acyltransferase (ACAT) in hepatic microsomes. It is filed as biochemical, Sprague Dawley rat. As to the method:
A. Assay of the Inhibition of Acyl-CoA: Cholesterol Acyltransferase (ACAT) in Hepatic Microsomes
The ability of the compounds to inhibit ACAT, the enzyme responsible for the intracellular synthesis of cholesteryl esters, was tested as follows. Male Sprague Dawley rates weighing 150-300 g were fed rat chow ad libitum. The animals were fasted for twenty-four hours prior to being sacrificed by decapitation. The livers were perfused in situ with 50 ml of cold 0.25M sucrose, excised and homogenized in three volumes of 0.1M phosphate buffer, pH 7.4, that contained 0.5 mM EDTA (ethylenediaminetetraacetic acid), 1.0 mM glutathione, 0.25M sucrose and 20 mM leupeptin. Microsomes were obtained by differential centrifugation; the supernatant from an initial spin at 15,000×g for 15 minutes was centrifuged at 105,000×g for 1 hour to pellet the microsomes. The microsomes were suspended in homogenization buffer, reisolated by centrifugation, and stored at -70° C. Microsomes were used within one month of preparation.
The control assay in a final volume of 200 μl consisted of 200 μg of microsomal protein, 75 μM ^14 C-oleoyl-CoA (10,000 dpm/nmol) in 0.1M phosphate, pH 7.4, that contained 1 mM glutathione. Compounds were added in 5-10 μl of DMSO (dimethyl sulfoxide or ethanol) and additional controls were run with DMSO or ethanol only. All components, except the oleoyl-CoA, were preincubated for 15 min. at 37° C. prior to the initiation of the reaction by the addition of oleoyl CoA. The assay was terminated after 10 min by the addition of 4 ml of chloroform:methanol (2:1, v/v). 20,000 dpm of ^3 H-cholesteryl oleate and 10 μg of unlabeled cholesteryl oleate and oleic acid were added as an internal standard and carrier, respectively. After allowing 10 min. for lipid extraction, 0.8 ml of deionized water was added to separate the solution into two phases. The lower chloroform phase was collected, dried under nitrogen and resuspended in 100 μl of chloroform. The sample containing the neutral lipids was spotted onto a Gelman ITLC-SA polysilicic acid gel-impregnated sheet, which was developed using a hexane: diethyl ether: acetic acid (170:30:1 v/v/v) mobile phase. The lipids were visualized by their interaction with iodine vapor and the cholesteryl ester spot was scraped into a scintillation vial and counted. The specific activity of ACAT in the control incubation averaged 260 pmol/min/mg microsomal protein. The inhibition of ACAT activity by the compounds is shown in Table 7; the data are expressed as the concentration at which ACAT activity is inhibited by 50% (IC50).

In test [2] the test system is murine macrophage-like cell line J744.A1. The experiment in a line: Inhibition of cholesterol esterification in mammalian cells (macrophage). To be noted: Mus musculus; J744.A1 macrophage-like cells loaded with ac-LDL, 14C oleic acid. It is filed as cell-based. The method, then:
B. Assay of the Inhibition of Cholesterol Esterification in Mammalian Cells The esterification of cholesterol was determined in the murine macrophage-like cell line J744.A1. Cells were seeded in 35 mm wells at a density of 300,000 cells per well in 2 mls of Dulbecco's Modified Eagle Medium (DMEM) supplemented with 10% fetal bovine serum (FBS). Cells were incubated at 37° C. in an atmosphere of 5% CO2 and 93% humidity. After 24 hours the media was changed to 0.68 mls 10% FBS-DMEM containing 34 μg of acetylated human low density lipoprotein (ac-LDL) to increase the intracellular concentration of cholesterol and promote esterification. At 41 hours, various inhibitors were added to the cells in DMSO (10 μl/ml maximum). At 43 hours, the cells were pulsed with 0.1 mM ^14 C oleic acid (10,000 dpm/nmol) complexed with BSA (bovine serum albumin) to follow cholesterol ester formation. The experiment was terminated at 45 hours by washing the monolayers 3 times with 3 ml of Tris-buffered saline at 4° C. The lipids were extracted by incubating the monolayers with 1.5 ml of hexane: isopropanol (3:2, v/v) for 30 min. under gentle agitation. During this period, 10,000 dpm ^3 H-cholesteryl linoleate and 10 μg of cholesteryl oleate were added as an internal standard and carrier respectively. The organic solvent was remoted and the cells were washed with an additional 1.0 ml of hexane: isopropanol which was combined with the original extract. The cells were allowed to dry overnight, digested with 1.5 ml of 0.2 N sodium hydroxide for 1 hour and an aliquot of the solubilized protein used for protein determination using the Lowry method. […] Individual lipids were visualized with iodine and the cholesteryl ester spot cut out and transferred to scintillation vials to determine the amount of radioactivity.

Setting [3] is: rat hepatic microsomes, 14C-oleoyl-CoA, 37° C., pH 7.4, read-out: In Vitro ACAT IC50.

Structures can show the parent of a compound that is named as a salt. Where two headings read alike, the source gives them in different places. Where only a bound is given, the exact number is not on record here.

`CN(C(=O)C12CCC(C)(C(=O)O1)C2(C)C)C1N(C)C(c2ccc(F)cc2)=NC1(C(F)(F)F)C(F)(F)F` (single isomer, unassigned) [Example 25]: the IC50 in test [1] (setting [3]) came to 41 µM; in test [2], 98 µM.

Regarding `CN1C(c2ccc(F)cc2)=NC(C(F)(F)F)(C(F)(F)F)C1=NC(=O)c1ccc(F)cc1` [Example 2, N-[4,4-bis(trifluoromethyl)-2-(4-fluorophenyl)-4,5-dihydro-1-methyl-1H-imidazol-5-ylidene]-4-fluoro-benzamide], the IC50 in test [1] (setting [3]) is 20 µM; in test [2], > 100 µM. On to `Cc1ccc(C(=O)N=C2N(C)C(c3ccc(C)cc3)=NC2(C(F)(F)F)C(F)(F)F)cc1` [Example 5], for which the IC50 came out at 20 µM in test [1] (setting [3]) and 62 µM in test [2]. As for `CN1C(c2ccc(F)cc2)=NC(C(F)(F)F)(C(F)(F)F)C1NC(=O)c1ccc(F)cc1` (stereo not drawn) [Example 10, N-[4,4-bis-(trifluoromethyl)-2-(4-fluorophenyl)-4,5-dihydro-1-methyl-1H-imidazol-5-yl]-4-fluorobenzamide], the half-maximal inhibitory concentration (IC50) in test [1] (setting [3]) was 41 µM. Turning to `CN(C(=O)c1ccc(F)cc1)C1N(C)C(c2ccc(F)cc2)=NC1(C(F)(F)F)C(F)(F)F` (stereo not drawn) [Example 10A, N-[4,4-bis(trifluoromethyl)2-(4-fluorophenyl)-4,5-dihydro-1-methyl-1H-imidazol-5-yl]-4-fluorophenyl-N-methylbenzamide], the IC50 in test [1] (setting [3]) turned out to be 22 µM; in test [2] it was 105 µM. On to `CCCCOc1ccc(C(=O)N(C)C2N(C)C(c3ccc(F)cc3)=NC2(C(F)(F)F)C(F)(F)F)cc1` (stereo not drawn) [Example 11, N-[4,4-bis(trifluoromethyl)-2-(4-fluorophenyl)-4,5-dihydro-1-methyl-1H-imidazol-5-yl]-4-butoxy-N-methylbenzamide], for which the values for the IC50 in test [1] (setting [3]) and in test [2] were 2 µM and 14 µM, respectively. Take `COc1ccc(C(=O)N(C)C2N(C)C(c3ccc(F)cc3)=NC2(C(F)(F)F)C(F)(F)F)cc1` (stereo not drawn) [Example 12, N-[4,4-bis(trifluoromethyl)-2-(4-fluorophenyl)-4,5-dihydro-1-methyl-1H-imidazol-5-yl]-4-methoxy-N-methylbenzamide]: the IC50 in test [1] (setting [3]) amounted to 6 µM. As for `CN(C(=O)c1ccc(C(C)(C)C)cc1)C1N(C)C(c2ccc(F)cc2)=NC1(C(F)(F)F)C(F)(F)F` (stereo not drawn) [Example 13, N-[4,4-bis(trifluoromethyl)-2-(4-fluorophenyl)-4,5-dihydro-1-methyl-1H-imidazol-5-yl]-4-(1,1-dimethylethyl)-N-methylbenzamide], the IC50 in test [1] (setting [3]) turned out to be 4 µM; in test [2], 18 µM. `CN(C(=O)c1ccc([N+](=O)[O-])cc1)C1N(C)C(c2ccc(F)cc2)=NC1(C(F)(F)F)C(F)(F)F` (stereo not drawn) [Example 14, N-[4,4-bis(trifluoromethyl)-2-(4-fluorophenyl)-4,5-dihydro-1-methyl-1H-imidazol-5-yl]-N-methyl-4-nitrobenzamide]: the results for the IC50 in test [1] (setting [3]) and in test [2] were 8 µM and 18 µM, respectively.

For `CN(C(=O)c1ccc(-c2ccccc2)cc1)C1N(C)C(c2ccc(F)cc2)=NC1(C(F)(F)F)C(F)(F)F` (stereo not drawn) [Example 15, N-[4,4-bis(trifluoromethyl)-2-(4-fluorophenyl)-4,5-dihydro-1-methyl-1 H-imidazol-5-yl]-N-methyl-[1,1'-biphenyl]-4-carboxamide], the IC50 in test [1] (setting [3]) was found to be 17 µM; in test [2], 11 µM.

Regarding `CCCCCCC(=O)N(C)C1N(C)C(c2ccc(F)cc2)=NC1(C(F)(F)F)C(F)(F)F` (stereo not drawn) [Example 16, N-[4,4-bis(trifluoromethyl)-2-(4-fluorophenyl)-4,5-dihydro-1-methyl-1H-imidazol-5-yl]-N-methylheptanamide hydrochloride], the IC50 in test [1] (setting [3]) was determined as 2 µM; in test [2], 17 µM. `CCCCCCCCCCCC(=O)N(C)C1N(C)C(c2ccc(F)cc2)=NC1(C(F)(F)F)C(F)(F)F` (stereo not drawn) [Example 17]: the IC50 in test [1] (setting [3]) was 6 µM. As for `CC(C)CCCC(=O)N(C)C1N(C)C(c2ccc(F)cc2)=NC1(C(F)(F)F)C(F)(F)F` (stereo not drawn) [Example 18, N-[4,4-bis(trifluoromethyl)-2-(4-fluorophenyl)-4,5-dihydro-1-methyl-1H-imidazol-5-yl]-N,5-dimethyl-hexanamide hydrochloride], the IC50 in test [1] (setting [3]) was determined as 4 µM. Still for that read-out and setting: the same measure for `CN(C(=O)Nc1ccc(F)cc1F)C1N(C)C(c2ccc(F)cc2)=NC1(C(F)(F)F)C(F)(F)F` (stereo not drawn) [Example 28, N-[4,4-bis(trifluoromethyl)-2-(4-fluorophenyl)-4,5-dihydro-1-methyl-1H-imidazol-5-yl]-N'-2,4-difluorophenyl-N-methylurea]: 22 µM; for `CCCCCCCCNC(=O)N(C)C1N(C)C(c2ccc(F)cc2)=NC1(C(F)(F)F)C(F)(F)F` (stereo not drawn) [Example 29, N-[4,4-bis(trifluoromethyl)-2-(4-fluorophenyl)-4,5-dihydro-1-methyl-1H-imidazol-5-yl]-N'-octyl-N-methylurea hydrochloride]: 16 µM. Turning to `CCOc1ccc(C(=O)NC2N(C)C(c3ccc(F)cc3)=NC2(C(F)(F)F)C(F)(F)F)cc1` (stereo not drawn) [Example 30, N-[4,4-bis(trifluoromethyl)-2-(4-fluorophenyl)-4,5-dihydro-1-methyl-1H-imidazol-5-yl]-4-ethoxybenzamide], the IC50 in test [1] (setting [3]) came to 6 µM. In the case of `COc1ccc(C2=NC(C(F)(F)F)(C(F)(F)F)C(N(C)C(=O)CCCC(C)C)N2C)cc1` (stereo not drawn) [Example 34, N-[4,4-bis(trifluoromethyl)-2-(4-methoxyphenyl)-4,5-dihydro-1-methyl-1H-imidazol-5-yl]-N,5-dimethylhexanamide hydrochloride], in test [1] (setting [3]), the IC50 stood at 9 µM. In the case of `CN1C(=CC(=O)c2ccc(F)cc2)C(C(F)(F)F)(C(F)(F)F)N=C1c1ccc(F)cc1` [Example 96B, 2-[4,4-bis(trifluoromethyl)-2-(4-fluorophenyl)-4,5-dihydro-1-methyl-1H-imidazol-5-ylidene]-1-(4-fluorophenyl)-1-ethanone], the IC50 in test [1] (setting [3]) stood at 19 µM. In the case of `COc1ccc(OC(=O)N=C2N(C)C(c3ccc(OC)cc3)=NC2(C(F)(F)F)C(F)(F)F)cc1` [Example 121], the IC50 in test [1] amounted to 64 µM.

In turn, `Cc1ccc(OC(=O)N=C2N(C)C(c3ccc(C)cc3)=NC2(C(F)(F)F)C(F)(F)F)cc1` [Example 122] registered an IC50 in test [1] of 49 µM. In the case of `CN1C(=O)C(C(F)(F)F)(C(F)(F)F)N=C1c1ccc(F)cc1` [Example 123, 2-(4-fluorophenyl)-3,5-dihydro-3-methyl-4,4-bis(trifluoromethyl)-4H-imidazol-4-one], the IC50 in test [1] (setting [3]) was > 100 µM.

The values are drawn from patent US5428041A, “Antihypercholesterolemic bis-trifluoromethyl-substituted imidazolines and derivatives thereof” (The Du Pont Merck Pharmaceutical Company, priority 1992, dated 1995).
